Paper PMC7998669, “7-(2-Anilinopyrimidin-4-yl)-1-benzazepin-2-ones Designed by a “Cut and Glue” Strategy Are Dual Aurora A/VEGF-R Kinase Inhibitors” (Molecules, 2021)

Experiments:
Assay in all cases: NCI cancer cell line screen (sulforhodamin B)
Assay type in all cases: cell-based
786-0 = settings: Homo sapiens; 786-0, Renal; 48 h; read-out: log10 GI50 (converted)
Experimental: (§1) The new dual Aurora A/VEGF-R inhibitors 2e and 2n were selected by the National Cancer Institute for screening in its broad cancer cell line panel. The NCI in vitro assay is performed by incubation of cells with test compounds for 48 h and subsequent cell fixation with trichloroacetic acid. The pink dye sulforhodamin B is added, which binds to the proteins of the fixed cells. After washing and solubilizing the bound stain, the optical density is measured spectrophotometrically to determine the relative proliferation of treated and untreated cells.
(§2) Simultaneous inhibition of the Aurora A kinase and the VEGF-R2/3 receptor kinases may represent an interesting dual activity for the treatment of cancer. The National Cancer Institute selected the compounds 2e and 2n as representatives with particularly high inhibitory activity on the above kinases for testing in the IVCLS (in vitro cell line screening). In this screening, compounds are tested for antiproliferative activity on about 60 in vitro cultivated tumor cell lines. Based on this very broad screening on cell lines from nine tumor entities the general antiproliferative potency of compounds is determined. In addition, the bioinformatic tool COMPARE allowed one to draw conclusions on the molecular target of the compounds from the activity patterns on the different cell lines. Similar molecular mechanisms of action of two compounds are assumed if a Pearson correlation coefficient (PCC) of > 0.6 is calculated by COMPARE [52, 53]. […] The selectivity profile of the two compounds is not very pronounced given the overall very similar proliferation inhibition values across all cell lines. A COMPARE analysis determined a PCC = 0.61 for the patterns of test compounds 2e and 2n, which is consistent with an analogous mechanism of action. However, whether this mechanism is actually based on the inhibition of the inhibited Aurora kinases and VEGF receptor kinases cannot be deduced from these profiles.

U251 = settings: Homo sapiens, U-251; U251, CNS; 48 h; read-out: log10 GI50 (converted)
Experimental: as §1, §2

HS 578T = settings: Homo sapiens, Breast, 48 h, read-out: log10 GI50 (converted)
Experimental: as §1, §2

A498 = settings: Homo sapiens; A498, Renal; 48 h; read-out: log10 GI50 (converted)
Experimental: as §1, §2

K-562 = settings: Homo sapiens, K562; K-562, Leukemia; 48 h; read-out: log10 GI50 (converted)
Experimental: as §1, §2

MDA-MB-435 = settings: Homo sapiens; MDA-MB-435, Melanoma; 48 h; read-out: log10 GI50 (converted)
Experimental: as §1, §2

NCI-H460 = settings: Homo sapiens; NCI-H460, NSCL; 48 h; read-out: log10 GI50 (converted)
Experimental: as §1, §2

HL-60(TB) = settings: Homo sapiens, Leukemia, 48 h, read-out: log10 GI50 (converted)
Experimental: as §1, §2

RXF 393 = settings: Homo sapiens; RXF 393, Renal; 48 h; read-out: log10 GI50 (converted)
Experimental: as §1, §2

COLO 205 = settings: Homo sapiens; COLO 205, Colon; 48 h; read-out: log10 GI50 (converted)
Experimental: as §1, §2

O=C1CCCc2cc(-c3ccnc(Nc4ccc(O)cc4)n3)ccc2N1 [Compound 2e, 7-[2-(4-Hydroxyanilino)pyrimidin-4-yl]-1,3,4,5-tetrahydro-2H-1-benzazepin-2-one]
GI50 (786-0): 4.37 µM | GI50 (U251): 6.03 µM | GI50 (HS 578T): 4.9 µM | GI50 (A498): 4.79 µM | GI50 (K-562): 3.72 µM | GI50 (MDA-MB-435): 3.63 µM | GI50 (NCI-H460): 3.16 µM | GI50 (HL-60(TB)): 1.38 µM | GI50 (RXF 393): 1.86 µM

COc1ccc(Nc2nccc(-c3ccc4c(c3)CCCC(=O)N4)n2)cc1O [Compound 2n, 7-[2-(3-Hydroxy-4-methoxyanilino)pyrimidin-4-yl]-1,3,4,5-tetrahydro-2H-1-benzazepin-2-one]
GI50 (786-0): 4.57 µM | GI50 (U251): 10.2 µM | GI50 (HS 578T): 2.14 µM | GI50 (A498): 37.2 µM | GI50 (K-562): 4.27 µM | GI50 (COLO 205): 26.3 µM | GI50 (MDA-MB-435): 5.25 µM | GI50 (NCI-H460): 4.68 µM | GI50 (HL-60(TB)): 3.16 µM | GI50 (RXF 393): 2.69 µM
